Source: patent US20030114360A1 (priority 2000, published 2003)
pIC50: −log10 of the molar value.

What was measured:
PrP-AP = assay type: binding
[1] = molecular target: PrP cell surface receptor on COS-7 cells (ATCC CRL-1651)
[2] = molecular target: PrP cell surface receptor on H4 cells (ATCC HTB-148)

OC[C@@H](O)[C@@H](O)[C@H](O)[C@H](O)CO [mannitol]
inhibition of PrP-AP binding to cell surfaces (PrP-AP): does not participate in the inhibition of binding

Copaxone
pIC50 [1]: 6.30 | pIC50 [2]: 6.30

GGSRYPGQGSP [control 11 mer]
inhibition of PrP-AP binding to cell surfaces by peptide (PrP-AP): Only the peptide with the PrP amino terminal sequence inhibited

KKRPKPGGWNT [N-term 11 mer]
inhibition of PrP-AP binding to cell surfaces by peptide (PrP-AP): inhibited
